Results from ChEMBL document CHEMBL2429832, “N-substituted 8-aminopentacyclo[5.4.0.0(2,6).0(3,10).0(5,9)]undecanes as σ receptor ligands with potential neuroprotective effects” (Bioorg Med Chem, 2013).

Tests used:
[1] = biological target: T1, Alpha-2A adrenergic receptor (Homo sapiens, UniProt P08913); test: Inhibition of adrenergic alpha2A receptor (unknown origin) by PDSP assay
T1 sequence (P08913 whole entry): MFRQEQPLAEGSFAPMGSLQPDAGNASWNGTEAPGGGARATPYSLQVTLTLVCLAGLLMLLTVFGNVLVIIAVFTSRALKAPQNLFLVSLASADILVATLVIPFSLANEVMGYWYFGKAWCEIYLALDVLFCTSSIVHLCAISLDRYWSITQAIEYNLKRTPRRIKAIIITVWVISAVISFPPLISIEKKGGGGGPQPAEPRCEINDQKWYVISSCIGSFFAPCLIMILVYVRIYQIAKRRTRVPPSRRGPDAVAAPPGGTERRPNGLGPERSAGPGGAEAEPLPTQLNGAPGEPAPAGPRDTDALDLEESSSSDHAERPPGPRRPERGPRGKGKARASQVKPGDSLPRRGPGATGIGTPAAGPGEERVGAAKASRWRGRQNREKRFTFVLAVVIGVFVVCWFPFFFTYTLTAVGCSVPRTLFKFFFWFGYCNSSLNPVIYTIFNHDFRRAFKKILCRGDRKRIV

[2] = biological target: D(2) dopamine receptor (Homo sapiens, UniProt P14416); test: Inhibition of dopamine D2 receptor (unknown origin) by PDSP assay
[3] = system: RAW264.7; test: Neuroprotective activity in mouse RAW264.7 cells assessed as inhibition of LPS-stimulated nitric oxide release after 20 to 24 hrs by Griess assay; type: functional, cell-based
[4] = biological target: T2, Muscarinic acetylcholine receptor M4 (Homo sapiens) (UniProt P08173); test: Inhibition of muscarinic M4 receptor (unknown origin) at 10 uM by PDSP assay relative to control
T2 sequence (whole entry): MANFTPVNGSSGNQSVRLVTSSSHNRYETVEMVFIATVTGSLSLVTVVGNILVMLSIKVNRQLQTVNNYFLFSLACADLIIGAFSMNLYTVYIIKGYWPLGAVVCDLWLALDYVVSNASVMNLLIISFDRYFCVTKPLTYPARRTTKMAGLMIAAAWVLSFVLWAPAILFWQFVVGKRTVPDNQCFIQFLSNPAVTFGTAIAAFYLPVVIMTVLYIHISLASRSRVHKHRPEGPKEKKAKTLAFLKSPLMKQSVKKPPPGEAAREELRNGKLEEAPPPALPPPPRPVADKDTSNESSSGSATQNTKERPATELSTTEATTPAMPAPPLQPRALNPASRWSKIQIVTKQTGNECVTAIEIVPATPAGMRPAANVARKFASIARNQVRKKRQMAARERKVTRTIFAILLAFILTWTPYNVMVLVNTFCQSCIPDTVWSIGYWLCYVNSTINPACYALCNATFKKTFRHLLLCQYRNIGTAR

[5] = biological target: D(1B) dopamine receptor (Homo sapiens, UniProt P21918); test: Inhibition of dopamine D5 receptor (unknown origin) by PDSP assay
[6] = biological target: T3, Alpha-2C adrenergic receptor (Homo sapiens) (UniProt P18825); test: Inhibition of adrenergic alpha2C receptor (unknown origin) at 10 uM by PDSP assay relative to control
T3 sequence (whole entry): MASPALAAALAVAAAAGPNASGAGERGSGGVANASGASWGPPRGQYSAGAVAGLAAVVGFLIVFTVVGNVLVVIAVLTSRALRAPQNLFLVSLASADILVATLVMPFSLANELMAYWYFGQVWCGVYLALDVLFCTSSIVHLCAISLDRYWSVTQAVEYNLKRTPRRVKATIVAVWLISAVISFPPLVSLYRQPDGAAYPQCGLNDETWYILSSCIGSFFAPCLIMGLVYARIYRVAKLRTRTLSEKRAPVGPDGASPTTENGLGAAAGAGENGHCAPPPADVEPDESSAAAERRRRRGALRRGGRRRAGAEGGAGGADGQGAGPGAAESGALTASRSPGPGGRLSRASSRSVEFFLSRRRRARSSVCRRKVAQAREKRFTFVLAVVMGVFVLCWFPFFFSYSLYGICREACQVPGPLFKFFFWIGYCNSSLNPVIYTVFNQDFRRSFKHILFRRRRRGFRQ

[7] = biological target: T4, Muscarinic acetylcholine receptor M1 (Homo sapiens, UniProt P11229); test: Inhibition of muscarinic M1 receptor (unknown origin) by PDSP assay
T4 sequence (P11229 whole entry): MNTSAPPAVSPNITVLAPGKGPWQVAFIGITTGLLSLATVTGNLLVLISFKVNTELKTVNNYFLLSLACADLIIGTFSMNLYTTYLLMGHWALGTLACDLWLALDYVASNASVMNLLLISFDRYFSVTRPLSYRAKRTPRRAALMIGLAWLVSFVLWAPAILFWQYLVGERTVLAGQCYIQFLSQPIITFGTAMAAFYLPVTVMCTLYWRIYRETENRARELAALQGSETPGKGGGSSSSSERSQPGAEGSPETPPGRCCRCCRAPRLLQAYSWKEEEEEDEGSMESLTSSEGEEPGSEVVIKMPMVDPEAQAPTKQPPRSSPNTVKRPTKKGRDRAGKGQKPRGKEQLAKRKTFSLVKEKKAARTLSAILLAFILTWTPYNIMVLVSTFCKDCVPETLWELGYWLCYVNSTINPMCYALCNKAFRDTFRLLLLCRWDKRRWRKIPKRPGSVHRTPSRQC

[8] = biological target: T5, Alpha-1B adrenergic receptor (Homo sapiens, UniProt P35368); test: Inhibition of adrenergic alpha1B receptor (unknown origin) by PDSP assay
T5 sequence (P35368 whole entry): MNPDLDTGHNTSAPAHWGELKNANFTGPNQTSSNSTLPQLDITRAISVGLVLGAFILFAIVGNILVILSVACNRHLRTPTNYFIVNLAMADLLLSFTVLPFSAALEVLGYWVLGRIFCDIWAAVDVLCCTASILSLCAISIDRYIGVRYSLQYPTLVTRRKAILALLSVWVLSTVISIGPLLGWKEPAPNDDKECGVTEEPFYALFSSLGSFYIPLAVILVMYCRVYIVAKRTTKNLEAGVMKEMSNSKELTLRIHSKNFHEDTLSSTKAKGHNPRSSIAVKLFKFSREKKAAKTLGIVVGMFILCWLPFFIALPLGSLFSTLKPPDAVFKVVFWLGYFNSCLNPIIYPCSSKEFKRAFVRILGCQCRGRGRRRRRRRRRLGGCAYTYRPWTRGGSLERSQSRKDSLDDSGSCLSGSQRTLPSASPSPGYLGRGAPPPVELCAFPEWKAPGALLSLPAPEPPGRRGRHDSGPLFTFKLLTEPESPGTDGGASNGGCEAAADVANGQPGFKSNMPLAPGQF

Sequence of D(2) dopamine receptor (P14416 whole entry): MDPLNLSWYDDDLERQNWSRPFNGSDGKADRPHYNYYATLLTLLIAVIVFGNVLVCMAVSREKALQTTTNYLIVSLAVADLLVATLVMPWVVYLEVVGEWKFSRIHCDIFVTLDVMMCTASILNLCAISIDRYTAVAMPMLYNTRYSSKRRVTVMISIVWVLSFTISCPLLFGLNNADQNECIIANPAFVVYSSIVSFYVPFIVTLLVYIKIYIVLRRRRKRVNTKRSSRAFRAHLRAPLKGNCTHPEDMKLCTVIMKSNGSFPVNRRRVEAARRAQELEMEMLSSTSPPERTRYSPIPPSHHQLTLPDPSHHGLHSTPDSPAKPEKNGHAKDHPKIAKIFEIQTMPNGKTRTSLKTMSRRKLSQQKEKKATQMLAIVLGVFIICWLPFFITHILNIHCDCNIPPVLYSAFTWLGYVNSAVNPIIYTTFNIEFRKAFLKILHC
Sequence of D(1B) dopamine receptor (P21918 whole entry): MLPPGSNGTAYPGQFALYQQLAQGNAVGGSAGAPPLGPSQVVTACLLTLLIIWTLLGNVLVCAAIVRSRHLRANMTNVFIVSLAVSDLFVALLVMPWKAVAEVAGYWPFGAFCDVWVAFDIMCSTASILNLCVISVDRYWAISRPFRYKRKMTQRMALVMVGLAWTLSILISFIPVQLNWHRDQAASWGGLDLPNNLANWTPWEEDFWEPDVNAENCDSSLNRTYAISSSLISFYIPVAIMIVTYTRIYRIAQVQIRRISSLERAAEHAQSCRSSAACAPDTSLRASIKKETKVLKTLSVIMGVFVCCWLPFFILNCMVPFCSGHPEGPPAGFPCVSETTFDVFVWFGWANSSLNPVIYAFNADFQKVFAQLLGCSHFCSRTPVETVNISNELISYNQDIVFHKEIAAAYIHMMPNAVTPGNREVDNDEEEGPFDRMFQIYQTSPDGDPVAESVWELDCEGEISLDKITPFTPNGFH

Row | Compound | inhibition [4] [%] | Ki [5] [µM] | inhibition [6] [%] | other results
1 | c1ccc(CCN[C@H]2C3C4CC5C6C4CC3C6C52)cc1 (some centres not stated) |  |  |  | Ki [1]: > 10 µM; Ki [2]: > 10 µM; inhibition [3]: Dose-dependent effect
2 | CN(Cc1ccc2c(c1)OCO2)[C@H]1C2C3CC4C5C3CC2C5C41 (some centres not stated) | < 50 | > 10 | < 50 | 
3 | COc1ccc(CN(C)[C@H]2C3C4CC5C6C4CC3C6C52)cc1OC (some centres not stated) |  | > 10 |  | 
4 | CN(Cc1ccccc1)[C@H]1C2C3CC4C2C(=O)C2C4C3C21 (some centres not stated) |  |  |  | Ki [7]: 5.86 µM
5 | c1ccc(CCN[C@H]2C3C4CC5C6C4CC3C6C52)nc1 (some centres not stated) |  |  |  | Ki [2]: 9.91 µM; Ki [8]: 3.44 µM
6 | CN(CCc1ccccn1)[C@H]1C2C3CC4C2C(=O)C2C4C3C21 (some centres not stated) | < 50 |  | < 50 | 
7 | c1cc2c(cc1CN[C@H]1C3C4CC5C6C4CC3C6C51)OCO2 (some centres not stated) |  | > 10 |  | 
8 | CN(Cc1cccnc1)[C@H]1C2C3CC4C5C3CC2C5C41 (some centres not stated) | < 50 |  | < 50 | 
9 | CN(CCc1ccccc1)[C@H]1C2C3CC4C5C3CC2C5C41 (some centres not stated) | < 50 |  |  | Ki [2]: 5.1 µM
10 | CN(Cc1cccnc1)[C@H]1C2C3CC4C2C(=O)C2C4C3C21 (some centres not stated) |  | > 10 | < 50 | 
11 | c1ccc(CN[C@H]2C3C4CC5C6C4CC3C6C52)cc1 (some centres not stated) | < 50 |  | < 50 | Ki [8]: 6.2 µM
12 | COc1cc(CN[C@H]2C3C4CC5C6C4CC3C6C52)cc(OC)c1OC (some centres not stated) | < 50 | > 10 |  | 
13 | COc1ccc(CN[C@H]2C3C4CC5C6C4CC3C6C52)cc1OC (some centres not stated) | < 50 |  |  | Ki [1]: 5.21 µM
14 | C1C2C3CC4C2C2C1C3[C@H](NCC13C5C6C7C5C1C7C63)C42 (some centres not stated) |  |  |  | Ki [2]: 5.68 µM; inhibition [3]: Dose-dependent effect; Ki [7]: 7.47 µM
15 | CN(Cc1ccccc1)[C@H]1C2C3CC4C5C3CC2C5C41 (some centres not stated) | < 50 |  | < 50 | 
16 | CN(CCCc1cccc(F)c1)[C@H]1C2C3CC4C2C(=O)C2C4C3C21 (some centres not stated) |  |  |  | Ki [1]: > 10 µM; Ki [7]: > 10 µM
17 | COc1ccc(CN(C)[C@H]2C3C4CC5C3C(=O)C3C5C4C32)cc1OC (some centres not stated) |  | > 10 | < 50 | Ki [1]: > 10 µM
18 | CN(CC1CCCCC1)[C@H]1C2C3CC4C5C3CC2C5C41 (some centres not stated) | < 50 |  | < 50 | inhibition [3]: Dose-dependent effect; Ki [8]: 0.0094 µM
19 | C1CCC(CN[C@H]2C3C4CC5C6C4CC3C6C52)CC1 (some centres not stated) |  |  |  | inhibition [3]: Dose-dependent effect
20 | CN(CCc1ccccn1)[C@H]1C2C3CC4C5C3CC2C5C41 (some centres not stated) |  |  | < 50 | 
